How the values were obtained:
[1] = system: HT1080 (human fibrosarcoma); test: Cell adhesion assay on matrigel coated wells; type: cell-based; details: HT1080, Conc. 10 µM; percent of adhesion with respect to the control (100%)
Description: Cell surface, non-integrin molecules such as heparan sulfate proteoglycans (HSPGs) may be involved in the regulation of early adhesive stages of cell-ECM interactions. A cell adhesion assay has been employed to determine if the newly designed heparanase inhibitors were able to interfere with adhesion properties of cancer cells.
HT1080 (human fibrosarcoma) cells were treated for 18-20 h with test compounds in complete medium supplemented with 10% FCS. Then cells were collected, washed in complete medium, and added to matrigel coated wells in triplicate, at previously identified optimal seeding density, and incubated at 37 °C in complete medium for times ranging from 15 minutes to 4h, according to the cell line. After incubation, the wells were washed three times with serum-free medium and the remaining firmly attached cells were stained with crystal-violet 0.1%. Optical density was measured at 560 nm by Victor 3 (Perkin-Elmer) plate analyzer. Each experiment was repeated three times.

[2] = system: HT1080 (human fibrosarcoma); test: SRB Cell Cytotoxicity Assay; type: cell-based; details: HT-1080, HT1080, treated for 72h, read-out: Concentration of test compounds at which the cell growth is inhibited by 50 % HT1080
From the text: (§1) SRB Cell Cytotoxicity Assay is an assay based upon the quantitative staining of cellular proteins by sulforhodamine B (SRB). This assay can be used for high-throughput drug screening (Vichai & Kirkitara, Nature Protocol. 2006, 1, 112). Sulforhodamine B is an anionic aminoxanthene dye that forms an electrostatic complex with the basic amino acid residues of proteins under moderately acid conditions, which provides a sensitive linear response.
(§2) To assess a putative antiproliferative activity of the selected compounds, HT1080 (human fibrosarcoma), U87MG (human glioblastoma astrocytoma) and U2OS (human osteosarcoma) cell lines were treated for 72h, in triplicate, with increasing concentrations of heparanase inhibitors. Inhibition of cell proliferation was then measured by the classical colorimetric SRB Cell Cytotoxicity assay. Absorbance was measured by spectrophotometer at a wavelength of 510 nm and cell proliferation was determined as percent with respect to control cells (cells treated with the vehicle alone). EC50 values were then determined by GraphPad Prism.

[3] = system: U2OS (human osteosarcoma); test: SRB Cell Cytotoxicity Assay; type: cell-based; details: treated for 72h, read-out: Concentration of test compounds at which the cell growth is inhibited by 50 % U2OS
From the text: as §1, §2

[4] = system: U87MG (human glioblastoma astrocytoma); test: SRB Cell Cytotoxicity Assay; type: cell-based; details: U-87 MG, treated for 72h, read-out: Concentration of test compounds at which the cell growth is inhibited by 50 % U87MG
From the text: as §1, §2

[5] = biological target: T1, heparanase (Homo sapiens, UniProt Q9Y251); test: AGA*IA assay: heparanase-catalyzed fondaparinux cleavage, colorimetric (WST-1); type: biochemical; details: 2.5 nM heparanase, 100 µM fondaparinux, pH 5.0, 3 h at 37°C; class symbols; read-out: AGAIA assay (IC50)
T1 construct: 100 µM fondaparinux, 2.5 nM heparanase and serial dilutions of test compounds
T1 sequence (Q9Y251 158-543 limits assumed): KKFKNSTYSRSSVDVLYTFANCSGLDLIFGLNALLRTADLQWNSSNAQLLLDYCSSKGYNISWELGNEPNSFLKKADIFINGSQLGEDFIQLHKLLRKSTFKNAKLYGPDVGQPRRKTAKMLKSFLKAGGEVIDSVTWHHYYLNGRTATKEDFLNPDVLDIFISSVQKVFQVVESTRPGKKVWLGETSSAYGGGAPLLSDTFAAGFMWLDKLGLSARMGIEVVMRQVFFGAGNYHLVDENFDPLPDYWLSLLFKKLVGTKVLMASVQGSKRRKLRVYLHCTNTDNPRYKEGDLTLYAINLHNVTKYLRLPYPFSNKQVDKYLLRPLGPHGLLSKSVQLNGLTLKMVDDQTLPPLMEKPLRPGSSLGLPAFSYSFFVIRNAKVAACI
T1 sequence (Q9Y251 36-109 limits assumed): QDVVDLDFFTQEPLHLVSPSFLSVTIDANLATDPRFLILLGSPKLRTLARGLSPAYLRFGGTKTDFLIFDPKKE
Description: All compounds were tested in a simple, accurate and robust microplate assay based on the cleavage of the synthetic heparin fragment, the pentasaccharide Fondaparinux (AGA*IA). This assay was originally developed by Hammond and coworkers [Hammond E, Li CP, Ferro V. Development of a colorimetric assay for heparanase activity suitable for kinetic analysis and inhibitor screening. […] Fondaparinux is cleaved by heparanase to generate a reducing disaccharide, which can be quantitatively measured via a colorimetric or a fluorescence assay, the last by the fluorescent sensor polymer-H [Schiemann S, Lühn S, Alban S. Development of both colorimetric and fluorescence heparinase activity assays using fondaparinux as substrate.
The assay measures the appearance of the disaccharide product of heparanase-catalyzed fondaparinux cleavage colorimetrically using the tetrazolium salt WST-1. Assay was essentially performed as described with minor modifications. Briefly, NUNC ELISA 96-well plates were pre-treated with a solution of 4% BSA (bovin serum albumin) in phosphate-buffered saline containing 0.05% Tween 20 (PBST), for 2 h at 37°C, then washed three times with PBST, dried by tapping on paper towel and stored at -20°C. Before use, once again, the plates were washed with PBST.
Then, the absorbance at 560 nm was measured through a microplate reader (Victor 3, Perkin Elmer).
Finally, the measurements were corrected by subtracting both the reagent background and the inner absorbance value of test compound.

[6] = system: U2OS; test: Matrigel cell invasion assay; type: cell-based, human; design: key to Invasion Assay Inhibition (%) U2OS: +++: > 90%; ++: 50-90 %; +: < 50%; -: Not active; details: Conc. 10 µM
[7] = system: U87MG; test: Matrigel cell invasion assay; type: cell-based, human; details: Homo sapiens, U-87 MG, Conc. 10 µM
[8] = system: U87MG; test: Cell adhesion assay on matrigel coated wells; type: cell-based, human; details: Conc. 10 µM, percent of adhesion with respect to the control (100%)

**Q.** How did the “Adhesion Assay (%) HT1080” value [1] turn out when `COc1cc(N=Nc2cc(S(=O)(=O)O)cc3cc(S(=O)(=O)O)cc(O)c23)c(C)cc1NC(=O)Nc1cc(C)c(N=Nc2cc(S(=O)(=O)O)cc3cc(S(=O)(=O)O)cc(O)c23)cc1OC` [SST0597] was run?
**A.** The value was “∼ 85%”.

**Q.** And the EC50 [2]?
**A.** The EC50 was over 10 µM.

**Q.** And the EC50 [3]?
**A.** The EC50 was over 10 µM.

**Q.** What about the EC50 [4] of the same compound?
**A.** The EC50 was over 10 µM.

**Q.** And the IC50 [5]?
**A.** The IC50 was 0.05 to 0.49 µM.

**Q.** And the “Invasion Assay Inhibition (%) U2OS” value [6]?
**A.** Its value is “-”.

**Q.** What about the inhibition at 10 µM [7] of the same compound?
**A.** Its inhibition at 10 µM is under 50%.

**Q.** And the “Adhesion Assay (%) U87MG” value [8]?
**A.** The value was “∼ 23%”.
